Test: mn = molality of the nth substance listed, in mol/kg
Details: 101 kPa, Liquid; for speed of sound: Pulse-echo method

CCCC[P+](CCCC)(CCCC)CCCC.[Br-] [tetrabutylphosphonium bromide] + CCCO
Details	mass density, 288.15 K [kg/m3]	mass density, 293.15 K [kg/m3]	mass density, 298.15 K [kg/m3]	mass density, 303.15 K [kg/m3]	mass density, 308.15 K [kg/m3]	mass density, 313.15 K [kg/m3]	mass density, 323.15 K [kg/m3]	speed of sound, 298.15 K [m/s]
m1 = 0.008229	808.063	804.08	800.075	796.04	791.98	787.867	779.506	–
m1 = 0.01006	808.2	804.217	800.212	796.179	792.12	788.009	779.649	1205.6
m1 = 0.01526	808.58	804.599	800.599	796.569	792.51	788.405	780.051	–
m1 = 0.02043	808.96	804.977	800.981	796.957	792.896	788.788	780.443	–
m1 = 0.02524	809.318	805.33	801.34	797.315	793.259	789.158	780.808	1206.6
m1 = 0.03024	809.68	805.698	801.705	797.688	793.626	789.53	781.191	–
m1 = 0.03749	810.212	806.23	802.24	798.225	794.174	790.075	781.741	–
m1 = 0.05294	811.322	807.354	803.369	799.354	795.307	791.221	782.905	1208.6
m1 = 0.06813	812.403	808.443	804.463	800.458	796.411	792.34	784.043	1209.5
m1 = 0.0867	813.75	809.793	805.818	801.819	797.792	793.72	785.44	1210.8
m1 = 0.1076	815.247	811.298	807.331	803.338	799.313	795.248	786.995	1212.2
m1 = 0.1375	817.423	813.485	809.531	805.541	801.524	797.479	789.244	1213.9
m1 = 0.1743	820.087	816.159	812.214	808.243	804.242	800.208	792.006	1216.2
m1 = 0.2115	822.781	818.864	814.928	810.97	806.982	802.96	794.787	1218.4
m1 = 0.2447	825.209	821.3	817.377	813.431	809.45	805.445	797.302	1220.7
m1 = 0.2873	828.335	824.437	820.523	816.588	812.63	808.638	800.526	1223.5
m1 = 0.3248	831.089	827.205	823.305	819.382	815.432	811.451	803.369	1225.7

CCCCO [butan-1-ol] + CCCC[P+](CCCC)(CCCC)CCCC.[Br-]
m2 = 0
Details	mass density [kg/m3]
288.15 K	813.269
293.15 K	809.472
298.15 K	805.659
303.15 K	801.817
308.15 K	797.945
313.15 K	794.037
323.15 K	786.081

CCCC[P+](CCCC)(CCCC)CCCC.[Br-] [tetrabutylphosphonium bromide] + CCO
Details	mass density, 288.15 K [kg/m3]	mass density, 293.15 K [kg/m3]	mass density, 298.15 K [kg/m3]	mass density, 303.15 K [kg/m3]	mass density, 308.15 K [kg/m3]	mass density, 313.15 K [kg/m3]	mass density, 323.15 K [kg/m3]	speed of sound, 298.15 K [m/s]
m1 = 0.01059	794.469	790.202	785.915	781.605	777.266	772.883	763.983	1143.4
m1 = 0.01529	794.835	790.569	786.285	781.975	777.642	773.262	764.367	–
m1 = 0.02012	795.211	790.945	786.664	782.36	778.029	773.654	764.765	1144.2
m1 = 0.02498	795.579	791.314	787.039	782.735	778.405	774.033	765.15	–
m1 = 0.03006	795.97	791.71	787.435	783.133	778.811	774.44	765.563	1144.9
m1 = 0.03503	796.342	792.084	787.812	783.514	779.185	774.821	765.954	–
m1 = 0.04151	796.84	792.586	788.317	784.017	779.692	775.339	766.473	–
m1 = 0.04161	–	–	–	–	–	–	–	1145.8
m1 = 0.05762	798.064	793.819	789.557	785.266	780.958	776.605	767.762	1147
m1 = 0.0739	799.301	795.066	790.805	786.532	782.224	777.879	769.054	1148.3
m1 = 0.09578	800.947	796.718	792.466	788.201	783.906	779.575	770.773	1150
m1 = 0.1153	802.415	798.195	793.96	789.696	785.405	781.083	772.302	1151.6
m1 = 0.1491	805.003	800.793	796.569	792.326	788.054	783.746	775	1154
m1 = 0.1902	808.127	803.94	799.735	795.51	791.254	786.963	778.257	1157.1
m1 = 0.2304	811.194	807.016	802.825	798.61	794.369	790.1	781.434	1160.1
m1 = 0.2693	814.212	810.05	805.871	801.675	797.452	793.195	784.564	1163.2
m1 = 0.3148	817.67	813.522	809.364	805.185	800.979	796.743	788.154	1166.6
m1 = 0.3532	820.707	816.572	812.423	808.255	804.069	799.851	791.3	1169.7

CCCC[P+](CCCC)(CCCC)CCCC.[Br-] [tetrabutylphosphonium bromide] + CCCCO
Details	mass density, 288.15 K [kg/m3]	mass density, 293.15 K [kg/m3]	mass density, 298.15 K [kg/m3]	mass density, 303.15 K [kg/m3]	mass density, 308.15 K [kg/m3]	mass density, 313.15 K [kg/m3]	mass density, 323.15 K [kg/m3]	speed of sound, 298.15 K [m/s]
m1 = 0.009722	813.972	810.179	806.37	802.533	798.665	794.76	786.817	–
m1 = 0.01455	814.314	810.525	806.716	802.882	799.017	795.113	787.175	–
m1 = 0.01936	814.655	810.867	807.061	803.227	799.366	795.464	787.531	1240.1
m1 = 0.0242	814.996	811.209	807.404	803.574	799.712	795.815	787.89	–
m1 = 0.02918	815.348	811.563	807.767	803.93	800.07	796.175	788.253	–
m1 = 0.0369	815.894	812.109	808.382	804.48	800.621	796.727	788.815	1241
m1 = 0.05364	817.07	813.293	809.495	805.673	801.825	797.943	790.046	1242
m1 = 0.07129	818.321	814.549	810.756	806.941	803.095	799.213	791.333	1243
m1 = 0.09251	819.818	816.049	812.265	808.455	804.62	800.743	792.887	1244.1
m1 = 0.1101	821.058	817.297	813.514	809.71	805.879	802.009	794.162	1245.1
m1 = 0.1395	823.126	819.37	815.598	811.804	807.981	804.127	796.295	1246.7
m1 = 0.1776	825.836	822.089	818.326	814.54	810.729	806.888	799.08	1248.8
m1 = 0.218	828.688	824.949	821.197	817.424	813.625	809.794	802.026	1251.1
m1 = 0.2537	831.238	827.51	823.765	820.001	816.21	812.388	804.641	1252.9
m1 = 0.2955	834.232	830.511	826.778	823.022	819.242	815.431	807.714	1255.3
m1 = 0.3323	836.873	833.16	829.434	825.687	821.922	818.127	810.433	1257.1

Source: the NIST ThermoML archive (doi:10.1021/je900888e)
